These results are taken from patent publication US7923443B2, “Pharmaceutical composition for the treatment of bone fracture” (Dong Wha Pharmaceutical Co., Ltd., priority 2004, dated 2011).

Molecules are shown by their SMILES. Marks after values point to notes of the source that are not given here.

Holding throughout (assay type): in vivo, S.D. rats
Data set [1] deals with rib fracture. Briefly: Effect of promoting fracture healing in rib fracture-induced rat model (overall). To be noted: compared with the results for N-hydroxy benzamidine compound above. How it is done:
(§1) The benzamidine compound of Chemical Formula 1 was assayed for therapeutic effect on bone fracture in rat models subjected to rib fracture. Starting from 2 days after the induction of rib fracture, the administration of the benzamidine compound was continued for one, two, three and four weeks. Changes in (body weight, body weight gain, volume of bony callus, bone density, bone strength, and bone histopathology were observed.
(§2) A total of 80 S.D. rats (10-week-old, BioGenomics, Korea) was adapted to a laboratory environment for 12 days before being used in experiments. While being housed at a density of two or three to a plastic cage, the experimental animals were kept in a breeding room under controlled temperature (20 to 25° C.) and humidity (30 to 35%). Under light-dark cycles of 12 hours, the rats were allowed to have free access to feedstuff and tap water.
(§3) 10 mg and 50 mg of N-hydroxy-4-{5-[4-(5-isopropyl-2-methyl-1,3-thiazol-4-yl)phenoxy]pentoxy}benzamidine were completely dissolved in 5 ml of sterilized distilled water. The benzamidine compound in the solutions was orally administered at doses of 10 mg and 50 mg per kg of body weight once a day for one, two, three and four weeks from day 2 of the surgery. […]

The nature of data set [2]: Body weight gain in rib fracture-induced rat model. How it is done:
as §1, §2
(§4) 10 mg and 50 mg of N-hydroxy-4-{5-[4-(5-isopropyl-2-methyl-1,3-thiazol-4-yl)phenoxy]pentoxy}benzamidine were completely dissolved in 5 ml of sterilized distilled water. The benzamidine compound in the solutions was orally administered at doses of 10 mg and 50 mg per kg of body weight once a day for one, two, three and four weeks from day 2 of the surgery.
(§5) All the experimental animals were anesthetized with ketamine hydrochloride and xylazine hydrochloride and underwent an operation for inducing a fracture on the 8th and the 9th rib. In this regard, the ribs were transversely cut with operation scissors. After the fracture induction, the fractured ribs were assembled to be aligned with each other and the wound cavity was closed through skin suture.
All the experimental animals were measured for body weight one day before the operation, the day of the operation, the day of administration, and 7, 14, 21 and 28 days after administration. In order to reduce the difference among individuals due to feedstuff intake, all experimental animals were starved for 18 hours or more on the day of the measurement. Also, to minimize the difference of change in body weight of individual animals, body weight gain during time periods from the day of the operation to 7, 14, 21 and 28 days after the administration were calculated.

Data set [3] has as its system bony callus. Briefly: Bone density of bony callus (DEXA), 9th rib. The method, then: as §1, §2, §4, §5
The 9th rib enucleated after the fracture induction was measured for the bone density around the bony callus using dual-energy x-ray absorptiometry (DEXA, PXImus; Lunar Medison, Wis.) and the bone density is calculated in mg/cm^2 in Table 7.

The test system of data set [4] is bony callus formed around the fractured 8th and 9th ribs. Briefly: Volume of bony callus in rib fracture-induced rat model. How it is done: as §1, §2, §4, §5
On the sacrificial day, the bony callus formed around the fractured 8th and 9th ribs was separated from adjacent tissues and taken out of all experimental animals. The enucleated bony calluses were measured for long and short diameters in millimeters. The volume of the bony callus was calculated from the measurements using the following mathematic formula 1. Volume of Bony callus=½×(a×b^2) Formula 1
a: long diameter of bony callus,
b: short diameter of bony callus.

Data set [5] relates to osteoclasts in the bony callus. As to the kind of experiment: Number of osteoclasts in the bony callus, 8th rib. The method, then: as §1, §2, §4, §5
(§6) The 8th rib enucleated after the fracture induction was fixed in 10% neutral formalin, followed by decalcification by changing a decalcification solution (2.24% formic acid, 0.5N […]) with fresh solution once a day for five days. After completion of the decalcification, the rib was embedded in paraffin. The paraffin-embedded tissue was sliced at a thickness of 3 to 4 μm, stained with hematoxylin-eosin or Masson's trichrome and observed through an optical microscope.
Furthermore, the number of osteoclasts in the bony callus, particularly, within an area of (200 μm)^2 on the fracture surface at which endochondral ossification commenced, was measured using an Analysis Image processing system (SIS Germany).

The test system of data set [6] is bony callus. As to the kind of experiment: Histopathological observation of 8th rib (FIG. 1). To be noted: all administration time periods; versus non-treated group; dose-dependent. How it is done:
FIG. 1 an optical microphotograph showing sliced tissue specimens of the 8th rib extracted after fracture induction, stained with Masson's trichrome.
as §1, §2, §3

Data set [7] deals with bony callus. Briefly: Bone strength of bony callus (three point bending test), 9th rib. How it is done: as §1, §2, §4, §5
The bone strength around the fracture face at which a bony callus was formed in the 9th rib enucleated after the fracture induction was determined from three point bending tests using an Instron material testing system (Instron 6022; Instron, USA; speed 20 mm/min).

Data set [8] concerns bony callus. As to the kind of experiment: Histomorphometry of bony callus (connective, cartilage, bone tissue content), 8th rib. How it is done:
as §1, §2, §4, §5, §6
From the rib tissue specimen prepared above, the amounts of the connective tissue, cartilage and bone tissue in the bony callus were examined using an Analysis Image processing system (SIS Germany) and are represented as percentages in Tables 3 to 5, below.

Setting [9] is: 10 mg/kg oral once a day, 7 days after administration.
Where [10] appears, read: 10 mg/kg oral once a day, 14 days after administration.
[11] abbreviates: 10 mg/kg oral once a day, 21 days after administration.
[12] abbreviates: 10 mg/kg oral once a day, 28 days after administration.
[13] abbreviates: 50 mg/kg oral once a day, 7 days after administration.
Setting [14] is: 50 mg/kg oral once a day, 14 days after administration.
Where [15] appears, read: 50 mg/kg oral once a day, 21 days after administration.
[16] abbreviates: 50 mg/kg oral once a day, 28 days after administration.

Regarding `Cc1nc(-c2ccc(OCCCCCOc3ccc(C(=N)NO)cc3)cc2)c(C(C)C)s1` [N-hydroxy-4-{5-[4-(5-isopropyl-2-methyl-1,3-thiazol-4-yl)phenoxy]pentoxy}benzamidine], the “Healing effects on bone fracture” value in data set [1] is listed as “same healing effects as above”.
Turning to `Cc1nc(-c2ccc(OCCCCCOc3ccc(C(=N)NO)cc3)cc2)c(C(C)C)s1` [Cpd. Of Chemical Formula 1, N-hydroxy-4-{5-[4-(5-isopropyl-2-methyl-1,3-thiazol-4-yl)phenoxy]pentoxy}benzamidine], the “Changes in Body Weight Gain” value in data set [2] (setting [9]) is given as 16.00 ± 13.55 g; in data set [2] (setting [10]) it was 44.40 ± 14.54 g; in data set [2] (setting [11]), 46.40 ± 22.39 g; in data set [2] (setting [12]), 61.20 ± 22.81 g; in data set [2] (setting [13]) it was 14.80 ± 08.81 g; in data set [2] (setting [14]), 36.82 ± 29.52 g. The “Changes in Body Weight Gain” value in data set [2] (setting [15]) is reported as 68.60 ± 16.65 g; in data set [2] (setting [16]), 84.40 ± 23.37 g. The “Changes in Bone Density of Bony Callus” value was found to be 0.24 ± 0.04 mg/cm^2 in data set [3] (setting [9]); 0.32 ± 0.04 mg/cm^2 in data set [3] (setting [10]); 0.39 ± 0.04 mg/cm^2 in data set [3] (setting [11]); 0.55 ± 0.06 mg/cm^2 in data set [3] (setting [12]); 0.24 ± 0.03 mg/cm^2 in data set [3] (setting [13]); 0.32 ± 0.04 mg/cm^2 in data set [3] (setting [14]). Besides, the “Changes in Bone Density of Bony Callus” value worked out at 0.44 ± 0.07 mg/cm^2 in data set [3] (setting [15]) and 0.57 ± 0.04 mg/cm^2 in data set [3] (setting [16]). Besides, the “Changes in Bony Callus Volume” value in data set [4] (setting [9]) is 12.84 ± 4.42* mm^3; in data set [4] (setting [10]) it was 5.47 ± 1.81* mm^3; in data set [4] (setting [11]), 4.73 ± 2.13* mm^3; in data set [4] (setting [12]), 3.96 ± 2.41* mm^3; in data set [4] (setting [13]), 8.62 ± 3.43* mm^3; in data set [4] (setting [14]) it was 4.36 ± 1.44* mm^3. Moreover, the “Changes in Bony Callus Volume” value in data set [4] (setting [15]) was 3.84 ± 1.86* mm^3; in data set [4] (setting [16]), 3.37 ± 0.79* mm^3. Also, the “Changes in Population of Osteoclasts within Bony Callus” value in data set [5] (setting [9]) was 43.80 ± 3.83 Counts present within (200 μm)^2 of bony callus; in data set [5] (setting [10]) it was 50.60 ± 2.70 Counts present within (200 μm)^2 of bony callus; in data set [5] (setting [11]), 31.00 ± 6.67 Counts present within (200 μm)^2 of bony callus; in data set [5] (setting [12]), 21.60 ± 3.58 Counts present within (200 μm)^2 of bony callus; in data set [5] (setting [13]), 42.60 ± 4.62 Counts present within (200 μm)^2 of bony callus; in data set [5] (setting [14]) it was 53.60 ± 2.41 Counts present within (200 μm)^2 of bony callus. The entries for the “Changes in Population of Osteoclasts within Bony Callus” value in data set [5] (setting [15]) and in data set [5] (setting [16]) were 22.20 ± 3.03 Counts present within (200 μm)^2 of bony callus and 17.60 ± 2.97 Counts present within (200 μm)^2 of bony callus, respectively. Besides, the “Bone tissue in bony callus, histopathological observation (FIG. 1)” value in data set [6] is on record as “increased bone tissue in bony callus in all administration time periods”. The “Changes in bone strength of bony callus” value is 2.15 ± 0.42 Nos. of Impact applied in data set [7] (setting [9]); 2.57 ± 0.65 Nos. of Impact applied in data set [7] (setting [10]); 3.10 ± 0.40 Nos. of Impact applied in data set [7] (setting [11]); 3.26 ± 0.43 Nos. of Impact applied in data set [7] (setting [12]); 2.35 ± 0.47 Nos. of Impact applied in data set [7] (setting [13]); 2.84 ± 0.34 Nos. of Impact applied in data set [7] (setting [14]). For the same compound, the “Changes in bone strength of bony callus” value was 3.23 ± 0.35 Nos. of Impact applied in data set [7] (setting [15]) and 3.35 ± 0.38 Nos. of Impact applied in data set [7] (setting [16]). For the same compound, the “Changes in Content of Bone Tissue in Bony Callus” value was 37.95 ± 6.44 % relative to total bony callus in data set [8] (setting [9]); 54.31 ± 9.50 % relative to total bony callus in data set [8] (setting [10]); 66.71 ± 5.41 % relative to total bony callus in data set [8] (setting [11]); 83.30 ± 4.43 % relative to total bony callus in data set [8] (setting [12]); 39.24 ± 14.12 % relative to total bony callus in data set [8] (setting [13]); 55.94 ± 8.38 % relative to total bony callus in data set [8] (setting [14]). The “Changes in Content of Bone Tissue in Bony Callus” value in data set [8] (setting [15]) is 74.07 ± 8.43 % relative to total bony callus; in data set [8] (setting [16]) it was 87.27 ± 8.97 % relative to total bony callus. Also, the “Changes in Content of Cartilage Tissue in Bony Callus” value in data set [8] (setting [9]) is 24.79 ± 5.43 % relative to total bony callus; in data set [8] (setting [10]), 23.77 ± 3.44 % relative to total bony callus; in data set [8] (setting [11]), 18.51 ± 2.29 % relative to total bony callus; in data set [8] (setting [12]), 6.59 ± 2.02 % relative to total bony callus; in data set [8] (setting [13]), 22.42 ± 5.45 % relative to total bony callus; in data set [8] (setting [14]), 20.09 ± 6.38 % relative to total bony callus. The entries for the “Changes in Content of Cartilage Tissue in Bony Callus” value in data set [8] (setting [15]) and in data set [8] (setting [16]) were 11.49 ± 2.31 % relative to total bony callus and 5.37 ± 1.38 % relative to total bony callus, respectively. Besides, the “Changes in Content of Connective Tissue of Bony Callus” value in data set [8] (setting [9]) is 33.19 ± 3.06 % relative to total bony callus; in data set [8] (setting [10]), 6.28 ± 0.72 % relative to total bony callus; in data set [8] (setting [11]) it was 5.55 ± 1.42 % relative to total bony callus; in data set [8] (setting [12]), 3.20 ± 0.89 % relative to total bony callus; in data set [8] (setting [13]), 29.51 ± 5.70 % relative to total bony callus; in data set [8] (setting [14]), 6.06 ± 0.44 % relative to total bony callus. The “Changes in Content of Connective Tissue of Bony Callus” value was 3.58 ± 0.62 % relative to total bony callus in data set [8] (setting [15]) and 2.59 ± 0.52 % relative to total bony callus in data set [8] (setting [16]).
For `Cc1nc(-c2ccc(OCCCCCOc3ccc(C(=N)N)cc3)cc2)c(C(C)C)s1` [4-{5-[4-(5-isopropyl-2-methyl-1,3-thiazol-4-yl)phenoxy]pentoxy}benzamidine], in data set [1], the “Healing effects on bone fracture” value is “same healing effects as above”.
